# Test results published in PubChem BioAssay (NCI).
#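 How tested: cells in 96-well plates exposed to compound for 48 hours at five concentrations. At the TGI there is no net growth.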
# Key:
# Assay in all cases: NCI-60 cell line screen, 48 h
# HCT-116 colon = system: HCT-116 colon
# 786-0 renal = system: 786-0 renal
# K-562 leukemia = system: K-562 leukemia
# MOLT-4 leukemia = system: MOLT-4 leukemia
# DLD-1 colon = system: DLD-1 colon
# NCI-H226 lung = system: NCI-H226 lung
# SNB-19 CNS = system: SNB-19 CNS
# CAKI-1 renal = system: CAKI-1 renal
# SF-539 CNS = system: SF-539 CNS
# HCC-2998 colon = system: HCC-2998 colon
# UO-31 renal = system: UO-31 renal
# A549 NSCLC = system: A549 NSCLC
# A498 renal = system: A498 renal
# SR leukemia = system: SR leukemia
# OVCAR-4 ovarian = system: OVCAR-4 ovarian
# HL-60(TB) leukemia = system: HL-60(TB) leukemia
# OVCAR-5 ovarian = system: OVCAR-5 ovarian
# HOP-18 NSCLC = system: HOP-18 NSCLC
# NCI-H522 lung = system: NCI-H522 lung
# ACHN renal = system: ACHN renal
# SK-MEL-28 melanoma = system: SK-MEL-28 melanoma
# LXFL 529 NSCLC = system: LXFL 529 NSCLC
# M14 melanoma = system: M14 melanoma
# SW-620 colon = system: SW-620 colon
# SNB-78 CNS = system: SNB-78 CNS
# HOP-62 NSCLC = system: HOP-62 NSCLC
# SF-295 CNS = system: SF-295 CNS
# RPMI-8226 leukemia = system: RPMI-8226 leukemia
# HCT-15 colon = system: HCT-15 colon
# UACC-62 melanoma = system: UACC-62 melanoma
# KM12 colon = system: KM12 colon
# KM20L2 colon = system: KM20L2 colon
# RXF-631 renal = system: RXF-631 renal
# LOX IMVI melanoma = system: LOX IMVI melanoma
# IGROV1 ovarian = system: IGROV1 ovarian
# TK-10 renal = system: TK-10 renal
# NCI-H460 lung = system: NCI-H460 lung
# SK-MEL-5 melanoma = system: SK-MEL-5 melanoma
# SN12C renal = system: SN12C renal
# UACC-257 melanoma = system: UACC-257 melanoma
# HOP-92 NSCLC = system: HOP-92 NSCLC
# SF-268 CNS = system: SF-268 CNS
# DMS 273 small cell lung = system: DMS 273 small cell lung
# SK-MEL-2 melanoma = system: SK-MEL-2 melanoma
# CCRF-CEM leukemia = system: CCRF-CEM leukemia
# DMS 114 small cell lung = system: DMS 114 small cell lung
# SK-OV-3 ovarian = system: SK-OV-3 ovarian
# U251 CNS = system: U251 CNS
# NCI-H23 lung = system: NCI-H23 lung
# SNB-75 CNS = system: SNB-75 CNS
# OVCAR-8 ovarian = system: OVCAR-8 ovarian
# COLO 205 colon = system: COLO 205 colon
# EKVX NSCLC = system: EKVX NSCLC
# MALME-3M melanoma = system: MALME-3M melanoma
# M19-MEL melanoma = system: M19-MEL melanoma
# OVCAR-3 ovarian = system: OVCAR-3 ovarian
# HT29 colon = system: HT29 colon
# BT-549 breast = system: BT-549 breast
# MCF7 breast = system: MCF7 breast
# MDA-MB-435 = system: MDA-MB-435
# NCI/ADR-RES ovarian = system: NCI/ADR-RES ovarian
# RXF 393 renal = system: RXF 393 renal
# DU-145 prostate = system: DU-145 prostate
# PC-3 prostate = system: PC-3 prostate
# T-47D breast = system: T-47D breast
# XF 498 CNS = system: XF 498 CNS
# MDA-MB-231 breast = system: MDA-MB-231 breast
# MDA-N = system: MDA-N
structure (smiles),measurement,setting,value
C1=Cc2nc1c(-c1ccccc1)c1ccc([nH]1)c(-c1ccccc1)c1nc(c(-c3ccccc3)c3ccc([nH]3)c2-c2ccccc2)C=C1,TGI,HCT-116 colon,> 100 µM
same,TGI,786-0 renal,> 100 µM
same,TGI,K-562 leukemia,> 100 µM
same,TGI,MOLT-4 leukemia,> 100 µM
same,TGI,DLD-1 colon,> 100 µM
same,TGI,NCI-H226 lung,> 100 µM
same,TGI,SNB-19 CNS,> 100 µM
same,TGI,CAKI-1 renal,> 100 µM
same,TGI,SF-539 CNS,> 100 µM
same,TGI,HCC-2998 colon,> 100 µM
same,TGI,UO-31 renal,> 100 µM
same,TGI,A549 NSCLC,> 100 µM
same,TGI,A498 renal,> 100 µM
same,TGI,SR leukemia,> 100 µM
same,TGI,OVCAR-4 ovarian,> 100 µM
same,TGI,HL-60(TB) leukemia,> 100 µM
same,TGI,OVCAR-5 ovarian,> 100 µM
same,TGI,HOP-18 NSCLC,> 100 µM
same,TGI,NCI-H522 lung,> 100 µM
same,TGI,ACHN renal,> 100 µM
same,TGI,SK-MEL-28 melanoma,> 100 µM
same,TGI,LXFL 529 NSCLC,> 100 µM
same,TGI,M14 melanoma,> 100 µM
same,TGI,SW-620 colon,> 100 µM
same,TGI,SNB-78 CNS,> 100 µM
same,TGI,HOP-62 NSCLC,> 100 µM
same,TGI,SF-295 CNS,> 100 µM
same,TGI,RPMI-8226 leukemia,> 100 µM
same,TGI,HCT-15 colon,> 100 µM
same,TGI,UACC-62 melanoma,> 100 µM
same,TGI,KM12 colon,> 100 µM
same,TGI,KM20L2 colon,> 100 µM
same,TGI,RXF-631 renal,> 100 µM
same,TGI,LOX IMVI melanoma,> 100 µM
same,TGI,IGROV1 ovarian,> 100 µM
same,TGI,TK-10 renal,> 100 µM
same,TGI,NCI-H460 lung,> 100 µM
same,TGI,SK-MEL-5 melanoma,> 100 µM
same,TGI,SN12C renal,> 100 µM
same,TGI,UACC-257 melanoma,> 100 µM
same,TGI,HOP-92 NSCLC,> 100 µM
same,TGI,SF-268 CNS,> 100 µM
same,TGI,DMS 273 small cell lung,> 100 µM
same,TGI,SK-MEL-2 melanoma,> 100 µM
same,TGI,CCRF-CEM leukemia,> 100 µM
same,TGI,DMS 114 small cell lung,> 100 µM
same,TGI,SK-OV-3 ovarian,> 100 µM
same,TGI,U251 CNS,> 100 µM
same,TGI,NCI-H23 lung,> 100 µM
same,TGI,SNB-75 CNS,> 100 µM
same,TGI,OVCAR-8 ovarian,> 100 µM
same,TGI,COLO 205 colon,> 100 µM
same,TGI,EKVX NSCLC,> 100 µM
same,TGI,MALME-3M melanoma,> 100 µM
same,TGI,M19-MEL melanoma,> 100 µM
same,TGI,OVCAR-3 ovarian,> 100 µM
same,TGI,HT29 colon,> 100 µM
COc1ccc(/C=C2/C(=O)N(C(=O)c3ccccc3O)N=C2C)cc1,TGI,HCT-116 colon,> 100 µM
same,TGI,BT-549 breast,98.1 µM
same,TGI,786-0 renal,> 100 µM
same,TGI,K-562 leukemia,> 100 µM
same,TGI,MOLT-4 leukemia,> 100 µM
same,TGI,DLD-1 colon,> 100 µM
same,TGI,NCI-H226 lung,32.3 µM
same,TGI,SNB-19 CNS,> 100 µM
same,TGI,CAKI-1 renal,51 µM
same,TGI,SF-539 CNS,2.2 µM
same,TGI,MCF7 breast,> 100 µM
same,TGI,HCC-2998 colon,> 100 µM
same,TGI,MDA-MB-435,> 100 µM
same,TGI,NCI/ADR-RES ovarian,14.1 µM
same,TGI,A549 NSCLC,> 100 µM
same,TGI,A498 renal,0.0747 µM
same,TGI,SR leukemia,> 100 µM
same,TGI,OVCAR-4 ovarian,> 100 µM
same,TGI,RXF 393 renal,1.23 µM
same,TGI,HL-60(TB) leukemia,9.87 µM
same,TGI,OVCAR-5 ovarian,> 100 µM
same,TGI,NCI-H522 lung,8.51 µM
same,TGI,ACHN renal,> 100 µM
same,TGI,SK-MEL-28 melanoma,> 100 µM
same,TGI,LXFL 529 NSCLC,> 100 µM
same,TGI,DU-145 prostate,> 100 µM
same,TGI,M14 melanoma,> 100 µM
same,TGI,SW-620 colon,> 100 µM
same,TGI,PC-3 prostate,> 100 µM
same,TGI,SF-295 CNS,> 100 µM
same,TGI,RPMI-8226 leukemia,> 100 µM
same,TGI,HCT-15 colon,1.24 µM
same,TGI,UACC-62 melanoma,> 100 µM
same,TGI,KM12 colon,> 100 µM
same,TGI,KM20L2 colon,> 100 µM
same,TGI,LOX IMVI melanoma,> 46.6 µM
same,TGI,IGROV1 ovarian,0.0784 µM
same,TGI,TK-10 renal,> 100 µM
same,TGI,NCI-H460 lung,> 100 µM
same,TGI,SK-MEL-5 melanoma,9.56 µM
same,TGI,SN12C renal,> 32 µM
same,TGI,UACC-257 melanoma,> 100 µM
same,TGI,HOP-92 NSCLC,> 100 µM
same,TGI,T-47D breast,> 100 µM
same,TGI,SF-268 CNS,> 100 µM
same,TGI,XF 498 CNS,> 100 µM
same,TGI,SK-MEL-2 melanoma,> 100 µM
same,TGI,CCRF-CEM leukemia,> 100 µM
same,TGI,DMS 114 small cell lung,2.25 µM
same,TGI,SK-OV-3 ovarian,> 100 µM
same,TGI,MDA-MB-231 breast,> 100 µM
same,TGI,U251 CNS,> 100 µM
same,TGI,OVCAR-8 ovarian,> 41.1 µM
same,TGI,COLO 205 colon,> 89.2 µM
same,TGI,EKVX NSCLC,> 100 µM
same,TGI,M19-MEL melanoma,> 100 µM
same,TGI,MDA-N,> 100 µM
same,TGI,OVCAR-3 ovarian,> 30.4 µM
same,TGI,HT29 colon,> 100 µM
